Results as given in ChEMBL document CHEMBL5723582, “Data for DCP probe T-10430” (2024).

How the values were obtained:
Conditions in all cases: Compound concentration 1.0 uM
[1] = target: Corticotropin-releasing factor receptor 2 (Homo sapiens) (UniProt Q13324); assay: RLU of CRHR2 at 1.0 µM in the […] PRESTO-Tango GPCRome screen
[2] = target: G-protein coupled receptor 157 (Homo sapiens) (UniProt Q5UAW9); assay: RLU of GPR157 at 1.0 µM in the […] PRESTO-Tango GPCRome screen
[3] = target: Probable G-protein coupled receptor 75 (Homo sapiens) (UniProt O95800); assay: RLU of GPR75 at 1.0 µM in the […] PRESTO-Tango GPCRome screen
[4] = target: Lysophosphatidic acid receptor 5 (Homo sapiens) (UniProt Q9H1C0); assay: RLU of LPAR5 at 1.0 µM in the […] PRESTO-Tango GPCRome screen
Lysophosphatidic acid receptor 5 (Homo sapiens), sequence (Q9H1C0 whole entry): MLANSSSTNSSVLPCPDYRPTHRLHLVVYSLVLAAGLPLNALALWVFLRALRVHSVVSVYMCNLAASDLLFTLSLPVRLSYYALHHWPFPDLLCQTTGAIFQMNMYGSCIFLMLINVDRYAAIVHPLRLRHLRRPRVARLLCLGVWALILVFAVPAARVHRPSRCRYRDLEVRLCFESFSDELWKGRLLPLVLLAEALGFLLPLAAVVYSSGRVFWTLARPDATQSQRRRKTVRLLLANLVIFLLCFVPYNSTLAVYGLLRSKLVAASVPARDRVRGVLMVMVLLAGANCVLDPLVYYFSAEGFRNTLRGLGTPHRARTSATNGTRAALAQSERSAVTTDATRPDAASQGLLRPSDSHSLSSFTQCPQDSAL

[5] = target: Probable G-protein coupled receptor 150 (Homo sapiens) (UniProt Q8NGU9); assay: RLU of GPR150 at 1.0 µM in the […] PRESTO-Tango GPCRome screen
Probable G-protein coupled receptor 150 (Homo sapiens), sequence (Q8NGU9 whole entry): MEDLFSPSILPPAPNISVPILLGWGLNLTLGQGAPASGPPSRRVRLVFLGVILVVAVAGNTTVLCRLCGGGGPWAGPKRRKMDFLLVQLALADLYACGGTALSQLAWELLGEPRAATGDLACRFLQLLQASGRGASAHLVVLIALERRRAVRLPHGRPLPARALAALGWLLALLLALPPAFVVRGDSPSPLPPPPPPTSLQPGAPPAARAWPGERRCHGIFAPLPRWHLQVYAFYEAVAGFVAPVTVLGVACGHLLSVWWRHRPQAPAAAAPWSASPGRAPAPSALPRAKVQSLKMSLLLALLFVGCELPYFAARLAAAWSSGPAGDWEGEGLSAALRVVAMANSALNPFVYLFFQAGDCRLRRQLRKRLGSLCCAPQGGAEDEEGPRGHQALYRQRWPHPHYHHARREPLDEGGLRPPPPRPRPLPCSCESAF

[6] = target: Probable G-protein coupled receptor 156 (Homo sapiens) (UniProt Q8NFN8); assay: RLU of GPR156 at 1.0 µM in the […] PRESTO-Tango GPCRome screen
Probable G-protein coupled receptor 156 (Homo sapiens), sequence (Q8NFN8 whole entry): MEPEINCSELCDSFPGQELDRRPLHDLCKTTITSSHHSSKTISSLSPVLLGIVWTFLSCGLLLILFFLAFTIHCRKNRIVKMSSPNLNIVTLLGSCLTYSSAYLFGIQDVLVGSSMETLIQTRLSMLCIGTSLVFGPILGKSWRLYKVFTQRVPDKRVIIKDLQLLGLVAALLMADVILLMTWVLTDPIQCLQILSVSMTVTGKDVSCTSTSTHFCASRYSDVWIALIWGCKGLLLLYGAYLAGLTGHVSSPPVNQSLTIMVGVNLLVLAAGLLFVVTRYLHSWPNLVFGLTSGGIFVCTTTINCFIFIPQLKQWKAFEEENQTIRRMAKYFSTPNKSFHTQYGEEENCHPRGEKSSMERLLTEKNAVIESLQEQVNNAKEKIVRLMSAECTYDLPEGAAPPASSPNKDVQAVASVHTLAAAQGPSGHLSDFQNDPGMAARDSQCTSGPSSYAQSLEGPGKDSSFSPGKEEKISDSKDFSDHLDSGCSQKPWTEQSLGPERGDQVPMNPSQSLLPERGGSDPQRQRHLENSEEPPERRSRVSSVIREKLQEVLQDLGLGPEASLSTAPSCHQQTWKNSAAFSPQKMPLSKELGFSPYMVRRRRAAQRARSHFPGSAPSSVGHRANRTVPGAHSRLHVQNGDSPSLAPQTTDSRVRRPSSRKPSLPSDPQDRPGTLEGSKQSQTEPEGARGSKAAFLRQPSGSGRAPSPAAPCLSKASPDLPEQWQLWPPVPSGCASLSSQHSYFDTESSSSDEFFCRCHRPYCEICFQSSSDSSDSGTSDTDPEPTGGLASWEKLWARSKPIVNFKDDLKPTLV

[7] = target: Putative adhesion G protein-coupled receptor F2P (Homo sapiens) (UniProt Q8IZF7); assay: RLU of GPR111 at 1.0 µM in the […] PRESTO-Tango GPCRome screen
[8] = target: Prostaglandin E2 receptor EP3 subtype (Homo sapiens) (UniProt P43115); assay: RLU of PTGER3 at 1.0 µM in the […] PRESTO-Tango GPCRome screen
[9] = target: Metabotropic glutamate receptor 5 (Homo sapiens) (UniProt P41594); assay: RLU of GRM5 at 1.0 µM in the Aequorin PRESTO-Tango GPCRome screen
[10] = target: G-protein coupled receptor 68 (Homo sapiens) (UniProt Q15743); assay: RLU of GPR68 at 1.0 µM in the […] PRESTO-Tango GPCRome screen
[11] = target: Metabotropic glutamate receptor 8 (Homo sapiens) (UniProt O00222); assay: RLU of GRM8 at 1.0 µM in the Aequorin PRESTO-Tango GPCRome screen
[12] = target: Probable G-protein coupled receptor 25 (Homo sapiens) (UniProt O00155); assay: RLU of GPR25 at 1.0 µM in the […] PRESTO-Tango GPCRome screen
[13] = target: Mas-related G-protein coupled receptor member X4 (Homo sapiens) (UniProt Q96LA9); assay: RLU of MRGPRX4 at 1.0 µM in the […] PRESTO-Tango GPCRome screen
Mas-related G-protein coupled receptor member X4 (Homo sapiens), sequence (Q96LA9 whole entry): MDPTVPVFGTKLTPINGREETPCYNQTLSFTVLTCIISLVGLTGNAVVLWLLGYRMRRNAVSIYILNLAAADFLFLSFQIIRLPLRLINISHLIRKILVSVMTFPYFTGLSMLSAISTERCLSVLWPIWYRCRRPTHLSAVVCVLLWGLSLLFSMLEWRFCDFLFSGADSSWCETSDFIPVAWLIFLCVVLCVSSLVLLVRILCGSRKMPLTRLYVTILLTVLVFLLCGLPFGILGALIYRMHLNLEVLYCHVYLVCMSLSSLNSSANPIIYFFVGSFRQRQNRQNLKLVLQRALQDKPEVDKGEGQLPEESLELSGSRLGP

[14] = target: G-protein coupled receptor 22 (Homo sapiens) (UniProt Q99680); assay: RLU of GPR22 at 1.0 µM in the […] PRESTO-Tango GPCRome screen
G-protein coupled receptor 22 (Homo sapiens), sequence (Q99680 whole entry): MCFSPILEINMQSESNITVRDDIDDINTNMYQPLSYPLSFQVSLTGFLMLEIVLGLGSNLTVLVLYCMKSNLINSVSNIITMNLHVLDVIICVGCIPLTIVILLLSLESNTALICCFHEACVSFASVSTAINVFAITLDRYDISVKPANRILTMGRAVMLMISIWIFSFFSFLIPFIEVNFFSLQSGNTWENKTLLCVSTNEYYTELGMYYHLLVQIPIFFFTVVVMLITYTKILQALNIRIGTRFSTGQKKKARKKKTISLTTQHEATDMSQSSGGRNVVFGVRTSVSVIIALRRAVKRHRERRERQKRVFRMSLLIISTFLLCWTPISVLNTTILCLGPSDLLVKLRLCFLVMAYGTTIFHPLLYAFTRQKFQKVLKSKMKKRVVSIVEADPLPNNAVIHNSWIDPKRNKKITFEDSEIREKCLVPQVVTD

[15] = target: fMet-Leu-Phe receptor (Homo sapiens) (UniProt P21462); assay: RLU of FPR1 at 1.0 µM in the […] PRESTO-Tango GPCRome screen
[16] = target: C-X-C chemokine receptor type 2 (Homo sapiens) (UniProt P25025); assay: RLU of CXCR2 at 1.0 µM in the […] PRESTO-Tango GPCRome screen
C-X-C chemokine receptor type 2 (Homo sapiens), sequence (P25025 whole entry): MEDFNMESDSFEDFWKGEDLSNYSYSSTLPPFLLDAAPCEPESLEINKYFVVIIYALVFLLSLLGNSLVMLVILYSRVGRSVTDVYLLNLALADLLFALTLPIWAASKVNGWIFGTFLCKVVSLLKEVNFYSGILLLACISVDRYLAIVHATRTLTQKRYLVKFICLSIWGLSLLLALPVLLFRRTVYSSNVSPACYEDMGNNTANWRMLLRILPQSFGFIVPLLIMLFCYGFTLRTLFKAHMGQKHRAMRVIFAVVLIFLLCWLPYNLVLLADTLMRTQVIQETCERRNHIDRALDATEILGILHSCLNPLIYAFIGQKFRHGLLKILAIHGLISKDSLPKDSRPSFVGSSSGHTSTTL

[17] = target: Metabotropic glutamate receptor 7 (Homo sapiens) (UniProt Q14831); assay: RLU of GRM7 at 1.0 µM in the Aequorin PRESTO-Tango GPCRome screen
[18] = target: Lysophosphatidic acid receptor 4 (Homo sapiens) (UniProt Q99677); assay: RLU of LPAR4 at 1.0 µM in the […] PRESTO-Tango GPCRome screen
[19] = target: G-protein coupled receptor 12 (Homo sapiens) (UniProt P47775); assay: RLU of GPR12 at 1.0 µM in the […] PRESTO-Tango GPCRome screen
G-protein coupled receptor 12 (Homo sapiens), sequence (P47775 whole entry): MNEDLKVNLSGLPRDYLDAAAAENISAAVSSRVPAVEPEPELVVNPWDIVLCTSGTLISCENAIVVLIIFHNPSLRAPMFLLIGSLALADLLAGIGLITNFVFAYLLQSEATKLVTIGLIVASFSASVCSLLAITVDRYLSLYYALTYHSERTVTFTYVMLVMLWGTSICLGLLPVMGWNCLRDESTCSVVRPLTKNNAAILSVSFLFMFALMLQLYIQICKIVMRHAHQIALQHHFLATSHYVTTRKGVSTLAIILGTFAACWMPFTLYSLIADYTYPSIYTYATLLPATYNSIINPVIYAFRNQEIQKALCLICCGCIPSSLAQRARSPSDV

[20] = target: G-protein coupled receptor 83 (Homo sapiens) (UniProt Q9NYM4); assay: RLU of GPR83 at 1.0 µM in the […] PRESTO-Tango GPCRome screen
[21] = target: Alpha-1B adrenergic receptor (Homo sapiens) (UniProt P35368); assay: RLU of ADRA1B at 1.0 µM in the […] PRESTO-Tango GPCRome screen
[22] = target: Adhesion G-protein coupled receptor G2 (Homo sapiens) (UniProt Q8IZP9); assay: RLU of GPR64 at 1.0 µM in the […] PRESTO-Tango GPCRome screen
[23] = target: Trace amine-associated receptor 2 (Homo sapiens) (UniProt Q9P1P5); assay: RLU of TAAR2 at 1.0 µM in the […] PRESTO-Tango GPCRome screen
Trace amine-associated receptor 2 (Homo sapiens), sequence (Q9P1P5 whole entry): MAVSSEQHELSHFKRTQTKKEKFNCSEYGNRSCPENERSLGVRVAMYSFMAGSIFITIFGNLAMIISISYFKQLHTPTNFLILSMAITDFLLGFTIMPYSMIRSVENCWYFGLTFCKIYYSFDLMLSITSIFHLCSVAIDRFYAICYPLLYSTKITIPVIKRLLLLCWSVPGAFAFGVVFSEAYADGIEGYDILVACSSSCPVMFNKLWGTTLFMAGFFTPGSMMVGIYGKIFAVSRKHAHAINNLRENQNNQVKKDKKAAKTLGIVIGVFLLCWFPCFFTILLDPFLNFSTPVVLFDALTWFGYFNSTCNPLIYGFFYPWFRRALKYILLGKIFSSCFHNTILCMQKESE

[24] = target: G-protein coupled receptor 171 (Homo sapiens) (UniProt O14626); assay: RLU of GPR171 at 1.0 µM in the […] PRESTO-Tango GPCRome screen
[25] = target: Endothelin-1 receptor (Homo sapiens) (UniProt P25101); assay: RLU of EDNRA at 1.0 µM in the […] PRESTO-Tango GPCRome screen
[26] = target: G-prodeshotein coupled receptor 4 (Homo sapiens) (UniProt P46093); assay: RLU of GPR4 at 1.0 µM in the […] PRESTO-Tango GPCRome screen
[27] = target: 5-hydroxytryptamine receptor 2B (Homo sapiens) (UniProt P41595); assay: RLU of HTR2B at 1.0 µM in the […] PRESTO-Tango GPCRome screen
[28] = target: 2-oxoglutarate receptor 1 (Homo sapiens) (UniProt Q96P68); assay: RLU of OXGR1 at 1.0 µM in the […] PRESTO-Tango GPCRome screen
2-oxoglutarate receptor 1 (Homo sapiens), sequence (Q96P68 whole entry, looked up): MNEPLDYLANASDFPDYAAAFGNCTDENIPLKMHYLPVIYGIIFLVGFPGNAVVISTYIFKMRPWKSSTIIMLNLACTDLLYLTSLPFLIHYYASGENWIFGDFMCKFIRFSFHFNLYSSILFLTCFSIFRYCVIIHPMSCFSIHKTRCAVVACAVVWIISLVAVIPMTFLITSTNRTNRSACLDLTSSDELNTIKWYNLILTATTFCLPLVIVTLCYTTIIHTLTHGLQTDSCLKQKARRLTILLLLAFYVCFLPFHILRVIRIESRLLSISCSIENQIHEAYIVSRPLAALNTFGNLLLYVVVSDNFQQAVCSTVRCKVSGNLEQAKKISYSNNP

[29] = target: Melanocyte-stimulating hormone receptor (Homo sapiens) (UniProt Q01726); assay: RLU of MC1R at 1.0 µM in the […] PRESTO-Tango GPCRome screen
[30] = target: Probable G-protein coupled receptor 132 (Homo sapiens) (UniProt Q9UNW8); assay: RLU of G2A at 1.0 µM in the […] PRESTO-Tango GPCRome screen
[31] = target: Extracellular calcium-sensing receptor (Homo sapiens) (UniProt P41180); assay: RLU of CASR at 1.0 µM in the […] PRESTO-Tango GPCRome screen
[32] = target: P2Y purinoceptor 4 (Homo sapiens) (UniProt P51582); assay: RLU of P2RY4 at 1.0 µM in the […] PRESTO-Tango GPCRome screen
P2Y purinoceptor 4 (Homo sapiens), sequence (P51582 whole entry): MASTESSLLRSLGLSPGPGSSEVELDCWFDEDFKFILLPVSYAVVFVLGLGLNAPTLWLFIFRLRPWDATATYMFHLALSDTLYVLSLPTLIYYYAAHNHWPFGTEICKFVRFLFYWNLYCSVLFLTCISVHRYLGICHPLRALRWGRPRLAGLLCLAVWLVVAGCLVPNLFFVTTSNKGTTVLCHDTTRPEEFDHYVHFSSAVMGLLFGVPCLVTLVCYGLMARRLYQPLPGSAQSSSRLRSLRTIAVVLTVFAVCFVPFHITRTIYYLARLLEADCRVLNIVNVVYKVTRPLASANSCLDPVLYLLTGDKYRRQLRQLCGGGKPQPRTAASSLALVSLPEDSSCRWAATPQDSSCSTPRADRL

[33] = target: D(4) dopamine receptor (Homo sapiens) (UniProt P21917); assay: RLU of DRD4 at 1.0 µM in the […] PRESTO-Tango GPCRome screen
[34] = target: D(1B) dopamine receptor (Homo sapiens) (UniProt P21918); assay: RLU of DRD5 at 1.0 µM in the […] PRESTO-Tango GPCRome screen
[35] = target: Nociceptin receptor (Homo sapiens) (UniProt P41146); assay: RLU of OPRL1 at 1.0 µM in the […] PRESTO-Tango GPCRome screen

G-protein coupled receptor 157 (Homo sapiens), sequence (Q5UAW9 whole entry): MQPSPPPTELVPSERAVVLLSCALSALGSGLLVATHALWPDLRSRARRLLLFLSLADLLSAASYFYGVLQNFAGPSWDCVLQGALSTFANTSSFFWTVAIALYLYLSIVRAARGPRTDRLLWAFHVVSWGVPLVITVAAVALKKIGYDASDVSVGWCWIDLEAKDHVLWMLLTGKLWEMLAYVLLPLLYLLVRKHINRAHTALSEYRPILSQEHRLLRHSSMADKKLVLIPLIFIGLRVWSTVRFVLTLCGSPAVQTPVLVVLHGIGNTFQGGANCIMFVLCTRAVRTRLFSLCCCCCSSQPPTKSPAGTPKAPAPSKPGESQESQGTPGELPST
Corticotropin-releasing factor receptor 2 (Homo sapiens), sequence (Q13324 whole entry): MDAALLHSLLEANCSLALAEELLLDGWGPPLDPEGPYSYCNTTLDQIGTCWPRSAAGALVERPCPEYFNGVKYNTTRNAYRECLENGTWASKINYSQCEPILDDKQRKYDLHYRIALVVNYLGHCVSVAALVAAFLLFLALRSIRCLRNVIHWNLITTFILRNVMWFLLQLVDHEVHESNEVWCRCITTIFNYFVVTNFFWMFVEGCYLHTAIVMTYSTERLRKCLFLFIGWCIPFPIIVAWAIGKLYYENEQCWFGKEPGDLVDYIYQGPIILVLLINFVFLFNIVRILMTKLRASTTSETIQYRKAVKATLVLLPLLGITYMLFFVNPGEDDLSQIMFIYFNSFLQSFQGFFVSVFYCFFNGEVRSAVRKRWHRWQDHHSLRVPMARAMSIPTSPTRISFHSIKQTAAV

**Q.** What does the source list for `CCCCC(=O)N1CC2(C1)CN(c1ccccc1-c1nnn[nH]1)C2`?
**A.** RLU [1]: 410; RLU [2]: -4180; RLU [3]: 868; RLU [4]: 471; RLU [5]: -1600; RLU [6]: 1540; RLU [7]: -1360; RLU [8]: 83.2; RLU [9]: -10100; RLU [10]: -1790; RLU [11]: -4060; RLU [12]: -1210; RLU [13]: 3310; RLU [14]: -1210; RLU [15]: 3270; RLU [16]: -473; RLU [17]: 6950; RLU [18]: -668; RLU [19]: 109; RLU [20]: 834; RLU [21]: -2730; RLU [22]: 8730; RLU [23]: 390; RLU [24]: -3250; RLU [25]: -1160; RLU [26]: -970; RLU [27]: -1740; RLU [28]: -826; RLU [29]: -1890; RLU [30]: -2780; RLU [31]: 4400; RLU [32]: -311; RLU [33]: -1390; RLU [34]: 856; RLU [35]: 2760
